Laboratory results as given in patent publication US7812044B2, “Anticancer agents” (Takeda Pharmaceutical Company Limited, priority 2001, dated 2010).

Tests used:
MAP kinase = assay: Activated MAP kinase in LNCaP cells, Western blotting with anti-phospho-MAP kinase antibody; assay type: cell-based; conditions: 24 h no serum, angiotensin II 1x10^-6 M or EGF 1 ng/ml
Description: In order to make clear the effect of angiotensin II on MAP kinase which is one of cellular proteins controlling cell growth, prostate cancer LNCaP cells were cultured for 24 hours with no serum stimulation, and then, stimulated with angiotensin II (1×10^−6 M) or EGF (1 ng/ml) already known to have growth promoting effect, and cells were collected at an appropriate time. The whole cell lysate was separated by SDS-PAGE, and then, transferred onto a PVDF membrane, and a total amount of cellular activated MAP kinase and MAP kinase was measured by Western blotting method using an anti-phospho-MAP kinase antibody which recognizes only activated MAP kinase (Cell Signaling Technology, 166B Cumming Center Beverly, Mass. 01915 U.S.A.: in FIG. 4, WB: PMAPK), and a MAP kinase antibody which recognizes all endogenous MAP kinases (Cell Signaling Technology, 166B Cumming Center Beverly, Mass. 01915 U.S.A.: in FIG. 4, WB: MAPK) [FIG. 4]. […] That is, it has been apparent that MAP kinase controlling cell growth is activated by stimulation of angiotensin II.

[1] = system: tyrosine phosphorylation of cellular proteins in LNCaP cells; assay: Tyrosine phosphorylation of cellular proteins in LNCaP cells, Western blotting with anti-phospho-tyrosine antibody; assay type: cell-based; conditions: 24 h no serum, angiotensin II 1x10^-6 M or EGF 1 ng/ml, 5 minutes
Description: It is already known that, when growth stimulation such as EGF is applied to cells, phosphorylation of cellular proteins is induced by activation of signal transduction pathway. Then, in order to make clear the effect of angiotensin II on prostate cancer, prostate cancer LNCaP cells were cultured for 24 hours with no serum stimulation, and then, the culture was stimulated with angiotensin II (1×10^−6 M) or EGF (1 ng/ml) which was already known to have growth promoting effect, and 5 minutes after, cells were collected. The whole cell lysate separated by SDS-PAGE, transferred onto a PVDF membrane, and then tyrosine phosphorylation of an cellular protein was observed by Western blotting method using an anti-phospho-tyrosine antibody (Upstate, 10 Old Barn Road Lake Placid, N.Y. 12946 U.S.A.) [FIG. 3]. […] That is, it is considered that stimulation with angiotensin II has the same or similar effect as that of stimulation with EGF on prostate cancer cells.

STAT3 [2] = assay: Activated STAT3 in LNCaP cells, Western blotting with anti-phospho-STAT3 (Tyr705) antibody; assay type: cell-based; conditions: 24 h no serum, angiotensin II 1x10^-6 M or EGF 1 ng/ml
Description: In order to make clear the effect of angiotensin II on an cellular protein STAT3 which is one of signal transducing molecules of a growth factor and a cytokine and is said to be involved in cell growth, prostate cancer LNCaP cells were cultured for 24 hours with no serum stimulation, and then, stimulated with angiotensin II (1×10^−6 M) or EGF (1 ng/ml) already known to have growth promoting effect, and cells were collected at an appropriate time. The whole cell lysate was separated by SDS-PAGE, and then, transferred onto a PVDF membrane. Activated STAT3 and a total amount of STAT3 were confirmed by Western blotting method using an anti-phospho-STAT3 (Tyr705) antibody which recognizes only activated STAT3 (Cell Signaling Technology, 166B Cumming Center Beverly, Mass. 01915 U.S.A.: in FIG. 5, WB: PSTAT3), and a STAT3 antibody which recognizes all endogenous STAT3s (Cell Signaling Technology, 166B Cumming Center Beverly, Mass. 01915 U.S.A.: in FIG. 5, WB: STAT3) [FIG. 5]. […] That is, it has been apparent that STAT3 controlling cell growth is activated by stimulation with angiotensin II.

[3] = system: LNCaP (androgen receptor positive cell line derived from metastasis of prostate cancer); assay: Cell number of LNCaP prostate cancer cells 5 days after addition of EGF and compound; assay type: cell-based; conditions: serum free, 10^-6 M compound plus EGF
Description: Prostate cancer cells, LNCaP (androgen receptor positive cell line derived from metastasis of prostate cancer) were seeded on a dish (1×10^5 cells/dish), and cultured for 24 hours under serum free conditions. Then, EGF and Compound B were added, and 5 days after, the number of cells was counted [FIG. 2].

MAPK [4] = assay: Phosphorylation of MAPK in LNCaP cells stimulated with EGF; assay type: cell-based; conditions: EGF 1 ng/ml, compound 10^-6 M added 30 minutes before
Description: (1) LNCaP cells (10^7 cells) were cultured in a serum-free culture medium (F-12+1 mg/ml BSA) for 24 hours, each concentration of EGF and Compound B (10^−6 M) were added, and phosphorylation of MAPK was investigated.

[5] = system: DU-145 (androgen receptor negative cell line derived from metastasis of prostate cancer); assay: Cell number of DU-145 prostate cancer cells 5 days after addition of EGF and compound; assay type: cell-based; conditions: DU-145, serum free, 10^-6 M compound plus EGF
Description: Prostate cancer cells, DU-145 (androgen receptor negative cell line derived from metastasis of prostate cancer) were seeded on a 6-well dish (1×10^5 cells/well), and cultured for 24 hours under serum free conditions. Then, EGF and 2-ethoxy-1-[[2′-(1H-tetrazol-5-yl)biphenyl-4-yl]methyl]benzimidazole-7-carboxylic acid (Compound B) were added, and 5 days after, the number of cells was counted with a hematocytometer [FIG. 1].

STAT3 [6] = assay: Phosphorylation after EGF stimulation of LNCaP cells, each concentration of compound; assay type: cell-based; conditions: EGF 1 ng/ml, compound 10^-6 M, 5x10^-6 M, 10x10^-6 M
MAPK [7] = assay: Phosphorylation of MAPK in LNCaP cells stimulated with IL-6; assay type: cell-based; conditions: IL-6 25 ng/ml, compound 10^-6 M, 5x10^-6 M, 10x10^-6 M
Description: (3) LNCaP cells (10^7 cells) were cultured in a serum-free culture medium (F-12+1 mg/ml BSA) for 24 hours, IL-6: 25 ng/ml and each concentration of Compound B (10^−6 M, 5×10^−6 M, 10×10^−6 M) were added, and phosphorylation of MAPK was investigated.

[8] = system: microvessels in DU145 tumor; assay: Number of microvessels in DU145 tumor of nude mouse, anti-CD31 staining; assay type: in vivo, nude mouse (Balb/c); conditions: 5 mg/kg/day orally, 4 weeks, magnification 400; control 72.5±9.7, P<0.02
Description: To a male 4 week old nude mouse (Balb/c), 5×10^6 DU145 cells were subcutaneously injected on a back. After 10 days, when tumor having a diameter of 5 mm was formed (0 week), Candesartan cilexetil (Compound C) was mixed into drinking water (each group: n=3) so that Compound C could be orally taken the an amount of 5 mg/kg/day. As a control group, a group (n=3) receiving no Compound C was bred at the same time. Initiation of the oral administration was regarded as week 0, each group was bred for 4 weeks, and thereafter, tumor was isolated, stained with an anti-CD31 antibody as described hereinafter, and the number of microvessels in tumor was examined. Under a microscope (magnification 400), four places rich in the number of microvessels were selected from a tumor solid tissue part, and the number was counted. The results are shown in [FIG. 7]. Average 72.5±9.7 vessels were recognized in one field in case of the control group, and average 37.5±3.3 vessels were recognized in one field in case of the Compound C-administered group and, thus, a significant difference was recognized between both groups (P<0.02).
Vessels in a tumor-transplanted tissue of a nude mouse were immunologically stained using an anti-mouse CD31 antibody, and the number of vessels and vascularization state were studied. Procedures were as follows: […]

DU145 cells = assay: Tumor growth of subcutaneous DU145 tumor in nude mouse, compound in drinking water; assay type: in vivo, nude mouse (Balb/c)
Description: To a male 4 week-old nude mouse (Balb/c), 5×10^6 DU145 cells were subcutaneously injected on a back. After 10 days, when tumor having a diameter of 5 mm was formed (week 0), Candesartan cilexetil (Compound C) was mixed into drinking water so that Compound C could be orally taken at a dosage of 5 mg/kg day or 2.5 mg/kg day (each group: n=5). As a control group, a group (n=5) receiving no Compound C was bred at the same time. Initiation of the oral administration was regarded as week 0, each group was bred for 4 weeks, and a diameter of tumor was measured every week.

angiotensin II: stimulant of LNCaP cells acting on the angiotensin II receptor AT1 (DRVYIHPF; Angiotensin-2; UniProt P01019 25-32, looked up)
activated MAP kinase (WB: PMAPK) (MAP kinase): activated MAP kinase was increased
tyrosine phosphorylation of cellular proteins [1]: tyrosine phosphorylation of the same protein by stimulation with angiotensin II was also observed
activated STAT3 (WB: PSTAT3) (STAT3 [2]): activated STAT3 was increased

CCOc1nc2cccc(C(=O)O)c2n1Cc1ccc(-c2ccccc2-c2nnn[nH]2)cc1 [Compound B, 2-ethoxy-1-[[2′-(1H-tetrazol-5-yl)biphenyl-4-yl]methyl]benzimidazole-7-carboxylic acid]
reduction of the number of cells as compared with stimulation with EGF alone [3]: about 22%
phosphorylation of MAPK by EGF stimulation (MAPK [4]): phosphorylation was inhibited
reduction of the number of cells as compared with stimulation with EGF alone [5]: about 12%
phosphorylation of STAT3 by EGF stimulation (STAT3 [6]): inhibited in a Compound B dose dependant manner
phosphorylation of MAPK by IL-6 (MAPK [7]): inhibited in a Compound B dose dependent manner

CCOc1nc2cccc(C(=O)OC(C)OC(=O)OC3CCCCC3)c2n1Cc1ccc(-c2ccccc2-c2nnn[nH]2)cc1 (centres unmarked) [Compound C, 1-(cyclohexyloxycarbonyloxy)ethyl 2-ethoxy-1-[[2′-(1H-tetrazol-5-yl)biphenyl-4-yl]methyl]benzimidazole-7-carboxylate]
number of microvessels in tumor, average vessels in one field [8]: 37.5±3.3 vessels
growth inhibition as compared with the control group (DU145 cells; 5 mg/kg/day orally, in and after week 2): significant difference of P<0.01
tumor growth (diameter of tumor) (DU145 cells; 5 or 2.5 mg/kg/day orally in drinking water, from week 2, 4 weeks): inhibition of tumor growth was observed

EGF: growth factor already known to have growth promoting effect
activated MAP kinase (WB: PMAPK) (MAP kinase): activated MAP kinase was increased
tyrosine phosphorylation of cellular proteins [1]: tyrosine phosphorylation was induced
activated STAT3 (WB: PSTAT3) (STAT3 [2]): activated STAT3 was increased
